Data from US10464915B2, “Dapagliflozin crystal form and preparation method and use thereof” (Jiangsu Hansoh Pharmaceutical Group Co., Ltd., priority 2016, dated 2019).
Read-outs that look alike come from different tables or passages of the source.

Key:
[1] = directly compressed, control pressure 10 KN; crystal form prepared in Example 8; FIG. 4
Text: The crystal form prepared in the Example 8 of the present invention was directly compressed by a tableting machine, and the control pressure was 10 KN.

[2] = 25° C.

Crystal form (40° C., 0 day): Crystal form E
Purity (40° C., 0 day): 99.9%
Crystal form (40° C., 5 days): Crystal form E
Purity (40° C., 5 days): 99.9%
Crystal form (40° C., 10 days): Crystal form E
Purity (40° C., 10 days): 99.9%
Crystal form (40° C., 30 days): Crystal form E
Purity (40° C., 30 days): 99.9%
Crystal form (Lighting (5000 lux), 0 day): Crystal form E
Purity (Lighting (5000 lux), 0 day): 99.9%
Crystal form (Lighting (5000 lux), 5 days): Crystal form E
Purity (Lighting (5000 lux), 5 days): 99.9%
Crystal form (Lighting (5000 lux), 10 days): Crystal form E
Purity (Lighting (5000 lux), 10 days): 99.9%
Crystal form (Lighting (5000 lux), 30 days): Crystal form E
Purity (Lighting (5000 lux), 30 days): 99.9%
Time stable (high temperature (40° C.)): at least 30 days
Time stable (lighting (5000 Lux)): at least 30 days
Time stable [2]: at least 6 months
Crystal form ([2]; 0 day): Crystal form E
Purity ([2]; 0 day): 99.9%
Crystal form ([2]; 1 month): Crystal form E
Purity ([2]; 1 month): 99.9%
Crystal form ([2]; 3 months): Crystal form E
Purity ([2]; 3 months): 99.9%
Crystal form ([2]; 6 months): Crystal form E
Purity ([2]; 6 months): 99.9%
Structure (SMILES): CCOc1ccc(Cc2cc([C@@H]3O[C@H](CO)[C@@H](O)[C@H](O)[C@H]3O)ccc2Cl)cc1 [Crystal form E, 2-chloro-5-(β-D-glucopyranosyl-1-yl)-4′-ethoxydiphenylmethane]
Crystal form transformation under tableting [1]: didn't undergo crystal form transformation
